Measurements taken from paper PMC10526274, “Epithelial-Immune Cell Crosstalk Determines the Activation of Immune Cells In Vitro by the Human Cathelicidin LL-37 at Low Physiological Concentrations” (Biomolecules, 2023).

Tested on: NKT cells (CD3+CD56+)
Test: Multiplex xMAP cytokine levels, NKT cells alone stimulated with LL-37
Format: cell-based, human
Conditions: 1 µM LL-37, 24 h
Description: NKT cells (CD3^+CD56^+) were isolated from PBMCs using the FACSVantageDiVa cell sorter (Becton Dickinson, Franklin Lakes, NJ, USA), equipped with 405, 488, and 643 nm lasers (Supporting Materials, Figure S1). PBMCs were re-suspended in the FACS buffer (PBS containing 0.5% BSA and 2 mM EDTA) and labeled with monoclonal mouse anti-human CD3-APC (clone UCHT1, Beckman Coulter, Pasadena, CA, USA) and mouse anti-human CD56-PE/Cy7 (clone N901, Beckman Coulter) antibodies to isolate NKT cells (CD3^+CD56^+).
Sorted NKT cells were expanded by stimulation with Dynabead Human T-Expander CD3/CD28 magnetic beads (Gibco) in RPMI-1640 medium containing 10% FBS, 1X antibiotic–antimycotic solution, 100 U/mL IL-2 (Gibco), and 50 ng/mL IL-7 (Sci-Store). CD3/CD28 magnetic beads were subsequently removed with a magnet. Expanded NKT cells were washed out of the cytokines and cryopreserved.
Primary blood monocytes, moDCs, and NKT cells were seeded in 600 µL of complete RPMI-1640 with 10% Human AB serum (Capricorn Scientific, Ebsdorfergrund, Germany) and supplemented with 1X antibiotic–antimycotic solution into the wells of 24-well plates at a density of 3–7 × 10^5 cells/well 24 h before the experiment. Then, 24 h later, the medium in each well was replaced by the same medium with 1 µM of LL-37 for the sample wells or fresh medium alone for the control wells, and the permeable inserts with the Caco-2 monolayer with TEER > 400 Ω × cm^2, containing 400 μL of the complete medium in their apical chamber, were immediately placed into the appropriate wells. Also, inserts with the Caco-2 monolayer were placed in cell-free wells of 24-well plates in the same complete RPMI-1640 medium with or without 1 µM of LL-37 as controls. Cells were kept in a CO2-incubator (5% CO2, 37 °C) for another 24 h. Then, culture medium from each well was collected, centrifuged, and frozen at −70 °C.
To quantitatively evaluate a broad spectrum of analytes secreted by human cell cultures at the protein level, multiplex xMAP technology was used. The chosen panel (cat. #HCYTA-60K-PX48, Merck, Darmstadt, Germany) included 48 different magnetic beads with primary antibodies to the following cytokines, chemokines, and growth factors: CCL11 (Eotaxin-1), Flt-3 ligand, CX3CL1 (Fractalkine), sCD40L, FGF-2, EGF, GROα, GM-CSF, G-CSF, IL-1RA, IL-1α, IL-1β, IL-2, IL-3, IL-4, IL-5, IL-6, IL-7, CXCL8 (IL-8), IL-9, IL-10, IL-12p40, IL-12p70, IL-13, IL-15, IL-17A (CTLA8), IL-17E (IL-25), IL-17F, IL-18, IL-22, IL-27, IFNγ, IFNα2, CXCL10 (IP-10), CCL2 (MCP-1), CCL7 (MCP-3), CCL22 (MDC), CXCL9 (MIG), CCL3 (MIP-1α), CCL4 (MIP-1β), CCL5 (RANTES), M-CSF, PDGF-AA, PDGF-AB/BB, TNFα, TNFβ, TGFα, and VEGF-A. The assay was performed in accordance with the manufacturer’s instructions with overnight incubation of the samples with primary antibodies, and the plate was read on a MAGPIX System (Merck) using the xPONENT 4.2 software (Merck). The acquired fluorescence data were analyzed by the MILLIPLEX Analyst v5.1 software (Merck), which realized an advanced curve-fitting algorithm. Levels of the analytes in control and experimental samples were compared with an unpaired two-sample t-test using GraphPad Prism v.8.0.1 (GraphPad Software, Inc., San Diego, CA, USA). The p-values ≤ 0.05 were considered significant.

Substance: LL-37: the only human cathelicidin, host defense antimicrobial peptide of 37 a.a. residues, produced by solid-phase peptide synthesis
- IL-8 level (n=2, control 0.21): 2.37 pg/mL
- IL-10 level (n=2, control 1.55): <1.35↓ pg/ml
- IL-2 level (n=2, control 1.66): 1.16 pg/mL
- FLT-3L level (n=2, control 1.72): 1.67 pg/mL
- EGF level (n=2, control 2.26): 2.26 pg/mL
- IL-6 level (n=2, control 3.12): 1.89 pg/mL
- MCP-3 level (n=2, control 4.7): 4.7 pg/mL
- MDC level (n=2, control 5.04): 2.93 pg/mL
- IL-9 level (n=2, control 7.06): 7.45 pg/mL
- MIG level (n=2, control 10.31): 7.16 pg/mL
- IL-1a level (n=2, control 11.32): 13.27 pg/mL
- IL-27 level (n=2, control 13.33): 29.42 pg/mL
- IFNg level (n=2, control 13.41): 12.33 pg/mL
- TNFa level (n=2, control 14.53): 13.36 pg/mL
- sCD40L level (n=2, control 18.13): <8.15↓ pg/ml
- FGF-2 level (n=2, control 29.25): 21.45 pg/mL
- IP-10 level (n=2, control 56.07): 50.77 pg/mL
- M-GSF level (n=2, control 66.65): 60.35 pg/mL
- MIP-1b level (n=2, control 67.9): 58.14 pg/mL
- GM-CSF level (n=2, control 76.24): 76.06 pg/mL
- IL-13 level (n=2, control 251.23): 237.88 pg/mL
- IL-5 level (n=2, control 323.09): 285.93 pg/mL
- RANTES level (n=2, control 1182): 1237 pg/mL
- MIP-1a level (n=2, control 1355): 1113 pg/mL
- IL-7 level (n=2, control <0.30): <0.30↓ pg/ml
- IL-18 level (n=2, control <0.30): <0.30↓ pg/ml
- IL-3 level (n=2, control <0.55): <0.55↓ pg/ml
- GROa level (n=2, control <0.66): <0.66↓ pg/ml
- TGF-a level (n=2, control <0.68): <0.68↓ pg/ml
- IL-17A level (n=2, control <0.70): <0.70↓ pg/ml
- IL-1b level (n=2, control <0.74): <0.74↓ pg/ml
- IL-4 level (n=2, control <0.87): <0.87↓ pg/ml
- IL-1RA level (n=2, control <0.93): <0.93↓ pg/ml
- TNFb level (n=2, control <0.93): 1 pg/mL
- VEGFa level (n=2, control <1.26): <1.26↓ pg/ml
- MCP-1 level (n=2, control <1.35): <1.35↓ pg/ml
- IL-15 level (n=2, control <1.54): <1.54↓ pg/ml
- IL-12 (p70) level (n=2, control <1.71): <1.71↓ pg/ml
- G-CSF level (n=2, control <2.32): <2.32↓ pg/ml
- Eotaxin level (n=2, control <2.91): <2.91↓ pg/ml
- IL-12 (p40) level (n=2, control <3.33): <3.33↓ pg/ml
- IFNa2 level (n=2, control <3.88): <3.88↓ pg/ml
- PDGF-AB/BB level (n=2, control <5.00): <5.00↓ pg/ml
- PDGF-AA level (n=2, control <6.49): <6.49↓ pg/ml
- IL-22 level (n=2, control <6.61): <6.61↓ pg/ml
- IL-17F level (n=2, control <12.19): <12.19↓ pg/ml
- Fractalkine level (n=2, control <18.09): <18.09↓ pg/ml
- IL-17E/IL-25 level (n=2, control <19.43): <19.43↓ pg/ml
